Reference: ChEMBL document CHEMBL1201861, “Genomics of Drug Sensitity in Cancer screening data, Wellcome Trust Sanger Institute”

Tests used:
Assay in all cases: cells
ES1 = type: functional, cell-based, Homo sapiens; conditions: Homo sapiens, ES1
Description: SANGER: Inhibition of human ES1 cell growth in a cell viability assay.

SF-268 = type: functional, cell-based, Homo sapiens; conditions: Homo sapiens, SF-268
Description: SANGER: Inhibition of human SF268 cell growth in a cell viability assay.

SW837 = type: functional, cell-based, Homo sapiens; conditions: Homo sapiens, SW837
Description: SANGER: Inhibition of human SW837 cell growth in a cell viability assay.

DK-MG = type: functional, cell-based, Homo sapiens; conditions: Homo sapiens, DK-MG
Description: SANGER: Inhibition of human DK-MG cell growth in a cell viability assay.

SW1417 = type: functional, cell-based, Homo sapiens; conditions: Homo sapiens, SW1417
Description: SANGER: Inhibition of human SW1417 cell growth in a cell viability assay.

LS-513 = type: functional, cell-based, Homo sapiens; conditions: Homo sapiens, LS-513
Description: SANGER: Inhibition of human LS-513 cell growth in a cell viability assay.

SK-MEL-30 = type: functional, cell-based; conditions: Homo sapiens
Description: SANGER: Inhibition of human SK-MEL-30 cell growth in a cell viability assay.

CAL-51 = type: functional, cell-based, Homo sapiens; conditions: Homo sapiens, CAL-51
Description: SANGER: Inhibition of human CAL-51 cell growth in a cell viability assay.

Daoy = type: functional, cell-based, Homo sapiens; conditions: Homo sapiens, Daoy
Description: SANGER: Inhibition of human Daoy cell growth in a cell viability assay.

Calu-3 = type: functional, cell-based, Homo sapiens; conditions: Homo sapiens, Calu-3
Description: SANGER: Inhibition of human Calu-3 cell growth in a cell viability assay.

BEN = type: functional, cell-based, Homo sapiens; conditions: Homo sapiens, BEN
Description: SANGER: Inhibition of human BEN cell growth in a cell viability assay.

NCI-H441 = type: functional, cell-based; conditions: Homo sapiens
Description: SANGER: Inhibition of human NCI-H441 cell growth in a cell viability assay.

KE-37 = type: functional, cell-based; conditions: Homo sapiens
Description: SANGER: Inhibition of human KE-37 cell growth in a cell viability assay.

SF-295 = type: functional, cell-based, Homo sapiens; conditions: Homo sapiens, SF-295; read-out: IC50
Description: SANGER: Inhibition of human SF295 cell growth in a cell viability assay.

MSTO-211H = type: functional, cell-based, Homo sapiens; conditions: Homo sapiens, MSTO-211H
Description: SANGER: Inhibition of human MSTO-211H cell growth in a cell viability assay.

YKG-1 = type: functional, cell-based, Homo sapiens; conditions: Homo sapiens, YKG-1
Description: SANGER: Inhibition of human YKG-1 cell growth in a cell viability assay.

CAL-39 = type: functional, cell-based, Homo sapiens; conditions: Homo sapiens, CAL-39
Description: SANGER: Inhibition of human CAL-39 cell growth in a cell viability assay.

RPMI-8226 = type: functional, cell-based; conditions: Homo sapiens
Description: SANGER: Inhibition of human RPMI-8226 cell growth in a cell viability assay.

EGI-1 = type: functional, cell-based, Homo sapiens; conditions: Homo sapiens, EGI-1
Description: SANGER: Inhibition of human EGI-1 cell growth in a cell viability assay.

NCI-H209 = type: functional, cell-based; conditions: Homo sapiens
Description: SANGER: Inhibition of human NCI-H209 cell growth in a cell viability assay.

KYSE-140 = type: functional, cell-based, Homo sapiens; conditions: Homo sapiens, KYSE-140
Description: SANGER: Inhibition of human KYSE-140 cell growth in a cell viability assay.

U-87 MG = type: functional, cell-based, U-87MG ATCC; conditions: Homo sapiens
Description: SANGER: Inhibition of human U-87-MG cell growth in a cell viability assay.

P30-OHK = type: functional, cell-based; conditions: Homo sapiens
Description: SANGER: Inhibition of human P30-OHK cell growth in a cell viability assay.

UMUC3 = type: functional, cell-based, Homo sapiens; conditions: Homo sapiens, UMUC3
Description: SANGER: Inhibition of human UM-UC-3 cell growth in a cell viability assay.

ESS-1 = type: functional, cell-based, Homo sapiens; conditions: Homo sapiens, ESS-1
Description: SANGER: Inhibition of human ESS-1 cell growth in a cell viability assay.

IST-MES1 = type: functional, cell-based, Homo sapiens; conditions: Homo sapiens, IST-MES1
Description: SANGER: Inhibition of human IST-MES1 cell growth in a cell viability assay.

U-251 = type: functional, cell-based, Homo sapiens; conditions: Homo sapiens, U-251
Description: SANGER: Inhibition of human U251 cell growth in a cell viability assay.

ALL-PO = type: functional, cell-based; conditions: Homo sapiens
Description: SANGER: Inhibition of human ALL-PO cell growth in a cell viability assay.

PSN1 = type: functional, cell-based, Homo sapiens; conditions: Homo sapiens, PSN1
Description: SANGER: Inhibition of human PSN1 cell growth in a cell viability assay.

NMC-G1 = type: functional, cell-based, Homo sapiens; conditions: Homo sapiens, NMC-G1
Description: SANGER: Inhibition of human NMC-G1 cell growth in a cell viability assay.

SW 954 = type: functional, cell-based, Homo sapiens; conditions: Homo sapiens, SW 954
Description: SANGER: Inhibition of human SW954 cell growth in a cell viability assay.

ES8 = type: functional, cell-based, Homo sapiens; conditions: Homo sapiens, ES8
Description: SANGER: Inhibition of human ES8 cell growth in a cell viability assay.

RKO = type: functional, cell-based, Homo sapiens; conditions: Homo sapiens, RKO
Description: SANGER: Inhibition of human RKO cell growth in a cell viability assay.

SW1573 = type: functional, cell-based, Homo sapiens; conditions: Homo sapiens, SW1573
Description: SANGER: Inhibition of human SW1573 cell growth in a cell viability assay.

EC-GI-10 = type: functional, cell-based, Homo sapiens; conditions: Homo sapiens, EC-GI-10
Description: SANGER: Inhibition of human EC-GI-10 cell growth in a cell viability assay.

CP66-MEL = type: functional, cell-based, Homo sapiens; conditions: Homo sapiens, CP66-MEL
Description: SANGER: Inhibition of human CP66-MEL cell growth in a cell viability assay.

KP-4 = type: functional, cell-based, Homo sapiens; conditions: Homo sapiens, KP-4; read-out: IC50
Description: SANGER: Inhibition of human KP-4 cell growth in a cell viability assay.

HOP-62 = type: functional, cell-based, Homo sapiens; conditions: Homo sapiens, HOP-62
Description: SANGER: Inhibition of human HOP-62 cell growth in a cell viability assay.

OVCAR-3 = type: functional, cell-based, Homo sapiens; conditions: Homo sapiens, OVCAR-3
Description: SANGER: Inhibition of human OVCAR-3 cell growth in a cell viability assay.

KM-H2 = type: functional, cell-based; conditions: Homo sapiens
Description: SANGER: Inhibition of human KM-H2 cell growth in a cell viability assay.

MDA-MB-453 = type: functional, cell-based, Homo sapiens; conditions: Homo sapiens, MDA-MB-453
Description: SANGER: Inhibition of human MDA-MB-453 cell growth in a cell viability assay.

SW982 = type: functional, cell-based; conditions: Homo sapiens
Description: SANGER: Inhibition of human SW982 cell growth in a cell viability assay.

HCE-T = type: functional, cell-based, Homo sapiens; conditions: Homo sapiens, HCE-T
Description: SANGER: Inhibition of human HCE-T cell growth in a cell viability assay.

HT1197 = type: functional, cell-based, Homo sapiens, HT-1197; conditions: Homo sapiens, HT1197
Description: SANGER: Inhibition of human HT-1197 cell growth in a cell viability assay.

EW-18 = type: functional, cell-based; conditions: Homo sapiens
Description: SANGER: Inhibition of human EW-18 cell growth in a cell viability assay.

JAR = type: functional, cell-based, Homo sapiens; conditions: Homo sapiens, JAR
Description: SANGER: Inhibition of human JAR cell growth in a cell viability assay.

TE-8 = type: functional, cell-based, Homo sapiens; conditions: Homo sapiens, TE-8
Description: SANGER: Inhibition of human TE-8 cell growth in a cell viability assay.

AM-38 = type: functional, cell-based, Homo sapiens; conditions: Homo sapiens, AM-38
Description: SANGER: Inhibition of human AM-38 cell growth in a cell viability assay.

ES3 = type: functional, cell-based, Homo sapiens; conditions: Homo sapiens, ES3
Description: SANGER: Inhibition of human ES3 cell growth in a cell viability assay.

MFE-280 = type: functional, cell-based, Homo sapiens; conditions: Homo sapiens, MFE-280
Description: SANGER: Inhibition of human MFE-280 cell growth in a cell viability assay.

COR-L88 = type: functional, cell-based; conditions: Homo sapiens
Description: SANGER: Inhibition of human COR-L88 cell growth in a cell viability assay.

## CCC1=C[C@@H]2CN(C1)Cc1c([nH]c3ccccc13)[C@@](C(=O)OC)(c1cc3c(cc1OC)N(C)[C@H]1[C@@](O)(C(=O)OC)[C@H](OC(C)=O)[C@]4(CC)C=CCN5CC[C@]31[C@@H]54)C2 [VINORELBINE]
ES1
  IC50: 3.78 nM
SF-268
  IC50: 16.3 nM
SW837
  IC50: > 64 nM
DK-MG
  IC50: > 64 nM
SW1417
  IC50: > 64 nM
LS-513
  IC50: > 64 nM
SK-MEL-30
  IC50: 12.4 nM
CAL-51
  IC50: 8.61 nM
Daoy
  IC50: 6.65 nM
Calu-3
  IC50: 18 nM
BEN
  IC50: 58.1 nM
NCI-H441
  IC50: 33.1 nM
KE-37
  IC50: 4.42 nM
SF-295
  IC50: 12 nM
MSTO-211H
  IC50: > 64 nM
YKG-1
  IC50: 3.73 nM
CAL-39
  IC50: 4.26 nM
RPMI-8226
  IC50: 17 nM
EGI-1
  IC50: > 64 nM
NCI-H209
  IC50: 50.8 nM
KYSE-140
  IC50: 23.8 nM
U-87 MG
  IC50: 27.1 nM
P30-OHK
  IC50: 10.1 nM
UMUC3
  IC50: 21.2 nM
ESS-1
  IC50: 9.14 nM
IST-MES1
  IC50: > 64 nM
U-251
  IC50: 6.89 nM
ALL-PO
  IC50: 3.36 nM
PSN1
  IC50: > 64 nM
NMC-G1
  IC50: 14.9 nM
SW 954
  IC50: 5.98 nM
ES8
  IC50: 2.72 nM
RKO
  IC50: 1.52 nM
SW1573
  IC50: 34 nM
EC-GI-10
  IC50: > 64 nM
CP66-MEL
  IC50: 45.1 nM
KP-4
  IC50: 2.71 nM
HOP-62
  IC50: 1.93 nM
OVCAR-3
  IC50: 6.21 nM
KM-H2
  IC50: 9.11 nM
MDA-MB-453
  IC50: > 64 nM
SW982
  IC50: 5.3 nM
HCE-T
  IC50: > 64 nM
HT1197
  IC50: > 64 nM
EW-18
  IC50: 7.05 nM
JAR
  IC50: > 64 nM
TE-8
  IC50: 46 nM
AM-38
  IC50: 33.5 nM
ES3
  IC50: 28.1 nM
MFE-280
  IC50: > 64 nM
COR-L88
  IC50: 34.8 nM

## COc1cc([C@@H]2c3cc4c(cc3[C@@H](O[C@@H]3O[C@@H]5CO[C@@H](C)O[C@H]5[C@H](O)[C@H]3O)[C@H]3COC(=O)[C@H]23)OCO4)cc(OC)c1O [ETOPOSIDE]
ES1
  IC50: 254 nM
SF-268
  IC50: 2550 nM
SW837
  IC50: > 16000 nM
DK-MG
  IC50: > 16000 nM
SW1417
  IC50: > 16000 nM
LS-513
  IC50: > 16000 nM
SK-MEL-30
  IC50: 8240 nM
CAL-51
  IC50: 1080 nM
Daoy
  IC50: 368 nM
Calu-3
  IC50: 496 nM
BEN
  IC50: > 16000 nM
NCI-H441
  IC50: 11200 nM
KE-37
  IC50: 40.7 nM
SF-295
  IC50: 1660 nM
MSTO-211H
  IC50: > 16000 nM
YKG-1
  IC50: 1230 nM
CAL-39
  IC50: 4640 nM
RPMI-8226
  IC50: 14300 nM
EGI-1
  IC50: 3270 nM
NCI-H209
  IC50: 1210 nM
KYSE-140
  IC50: 4920 nM
U-87 MG
  IC50: > 16000 nM
P30-OHK
  IC50: 1210 nM
UMUC3
  IC50: 1150 nM
ESS-1
  IC50: 531 nM
IST-MES1
  IC50: > 16000 nM
U-251
  IC50: 501 nM
ALL-PO
  IC50: 690 nM
PSN1
  IC50: > 16000 nM
NMC-G1
  IC50: 3320 nM
SW 954
  IC50: 1960 nM
ES8
  IC50: 142 nM
RKO
  IC50: 471 nM
SW1573
  IC50: 2250 nM
EC-GI-10
  IC50: > 16000 nM
CP66-MEL
  IC50: 6250 nM
KP-4
  IC50: 416 nM
HOP-62
  IC50: 524 nM
OVCAR-3
  IC50: > 16000 nM
KM-H2
  IC50: 1670 nM
MDA-MB-453
  IC50: > 16000 nM
SW982
  IC50: 131 nM
HCE-T
  IC50: > 16000 nM
HT1197
  IC50: > 16000 nM
EW-18
  IC50: > 16000 nM
JAR
  IC50: > 16000 nM
TE-8
  IC50: 8750 nM
AM-38
  IC50: 3670 nM
ES3
  IC50: 628 nM
MFE-280
  IC50: > 16000 nM
COR-L88
  IC50: > 16000 nM
